Read-outs that look alike come from different tables or passages of the source.
Columns and labels:
A549 cells [1] = test: A549 live cell count, trypan blue; format: cell-based, human; settings: 48 h, live cells counted
Protocol: (§1) (A) Inhibitory effect of CREB-mediated gene transcription by compounds i and ii in HEK 293 cells. Cells were transiently transfected with a plasmid encoding firefly luciferase under the control of three iterative copies of CRE (pCRE-Luc). Compound i or ii was added to the transfected cells in triplicate 30 min prior to the addition of forskolin (Fsk, 10 μM). The luciferase activity was measured using Dual Luciferase Reagent (Promega) and normalized to the co-transfected renilla luciferase (pRL-SV40, Promega). (B) Exponentially growing A549 cells in a 6-well plate (1.5×10^5 cells/well) were treated increasing concentrations of compound i or ii in triplicate for 48 h. […] Data were presented as mean±SD.
(§2) To investigate whether apoptosis was activated upon treatment, A549 cells were treated with either naphthol AS-E phosphate (i, 10 μM) or naphthol AS-E (ii, 10 μM) for 48 h. The cells were then analyzed by flow cytometry after staining with annexin-V and propidium iodide (PI). In this two-dye binding assay, annexin-V will bind phosphatidylserine exposed on the dying apoptotic cell surface while PI will only stain dead cells whose plasma-membrane integrity is compromised. This assay can discriminate intact cells (annexin^−/PI^−), apoptotic cells (annexin^+/PI^−) and necrotic or late apoptotic cells (annexin^+/PI^+).

[2] = tested on: CREB-mediated gene transcription; test: CRE firefly luciferase reporter assay in HEK 293 cells; format: cell-based; settings: forskolin 10 μM, normalized to renilla luciferase
Protocol: as §1
In this assay, HEK 293 cells were transiently transfected with a luciferase reporter plasmid which expresses firefly luciferase under the control of three copies of CREB-response element (CRE). Additionally, an internal control plasmid constitutively expressing renilla luciferase was co-transfected to normalize transfection efficiency across the wells. The inhibition flirt-fly luciferase transcription seen in HEK 293 cells by compound i was not due to cell death because the firefly luciferase activity was normalized to renilla luciferase activity and the number of live cells after compound treatment was the same for all the different concentrations tested.

[3] = Hydrolysis of naphthol AS-E phosphate in tissue culture media (DMEM), HPLC
Protocol: (A) Representative HPLC chromatograms of aliquots of the incubation mixture containing naphthol AS-E phosphate (i, 500 μM), 1-naphthalenemethanol (1 mM) and DMEM with 10% FBS at different time points. […] 1-Naphthalenemethanol was included as an internal standard. The minor peaks on the chromatograms are components from DMEM, which contains various amino acids, vitamins and carbohydrates. (B) Time-dependent increases of naphthol AS-E during the hydrolysis of naphthol AS-E phosphate. The data were extracted from the experiment presented in (A). The concentration of naphthol AS-E was determined based on the calibration curve shown in (C).
Napthol AS-E phosphate was incubated with tissue culture media (Dulbecco's Modified Eagle Medium, DMEM) containing 10% fetal bovine serum (FBS) at 37° C. along with an internal standard, 1-naphthalenemethanol. The hydrolysis of napthol AS-E phosphate was then monitored by reverse phase HPLC at various time points.

primary rat neurons = tested on: primary rat neurons
Protocol: E18 rat neurons were isolated from Sprague-Dawley rats at 18 days after gestation. The isolated neurons were plated into a 6-well plate coated with poly-D-lysine. On day 5 after plating the neurons, different compounds of indicated concentrations were added (in triplicates) and incubated with the neurons for 48 h. Then the neurons were harvested and the number of live neurons was counted with a hemacytometer after staining with trypan blue. Data were presented as mean±SD.
CREB is a pleiotrophic factor involved in many different cellular processes including neuronal survival. The possibility of neuronal cell death might be a concern for CREB inhibitors in the future clinical applications if they could cross the blood brain barrier. Therefore, the toxicity of naphthol AS-E phosphate (i) or its active form, naphthol AS-E (ii), to primary rat neurons was investigated. Isolated E18 rat neurons were treated with increasing concentrations of naphthol AS-E phosphate (i) or naphthol AS-E (ii) for 48 h. […] At the end of the treatment, the neurons were collected and the number of live neurons were counted using trypan blue exclusion assay (FIG. 3).

A549 cells [4] = test: A549 apoptosis, annexin-V/PI flow cytometry and PARP cleavage; format: cell-based, human; settings: for percentage of cells undergoing apoptosis: 10 μM, 48 h, vehicle 6.3%; for cleavage of poly (ADP-ribose) polymerase (PARP): A549 cells treated with compound
Protocol: as §2

Structure (SMILES): O=C(Nc1ccc(Cl)cc1)c1cc2ccccc2cc1OP(=O)(O)O [naphthol AS-E phosphate]
- A549 cell proliferation (A549 cells [1]): inhibited A549 cell proliferation
- inhibition of CREB-mediated gene transcription [2]: strongly inhibited
- hydrolysis of phosphate i to naphthol ii after 25-h incubation ([3]; DMEM with 10% FBS, 37° C.): complete hydrolysis
- period of constant rate of increase of naphthol AS-E ([3]; DMEM with 10% FBS, initial zero-order kinetics): > 8.5 h
- hydrolysis in tissue culture media without FBS ([3]; DMEM without FBS, 24 h): did not generate any hydrolysis product
- neuronal cell death (primary rat neurons): no significant neuronal cell death
- percentage of cells undergoing apoptosis (A549 cells [4]): 22.7%
- cleavage of poly (ADP-ribose) polymerase (PARP) (A549 cells [4]): detected

Structure (SMILES): O=C(Nc1ccc(Cl)cc1)c1cc2ccccc2cc1O [naphthol AS-E]
- A549 cell proliferation (A549 cells [1]): inhibited A549 cell proliferation
- neuronal cell death (primary rat neurons; E18 rat neurons, 48 h, naphthols up to 10 μM, CPT positive control): no significant neuronal cell death
- percentage of cells undergoing apoptosis (A549 cells [4]): 19.8%
- cleavage of poly (ADP-ribose) polymerase (PARP) (A549 cells [4]): detected
